According to PubChem BioAssay AID1996:
≈ marks a conversion by molar mass, not a printed value.

Settings: buffer; pH 7.4; 200.0 µM

Row | Compound | solubility kinetic
1 | CCC1(c2ccccc2)C(=O)NCNC1=O | > 32.7 µg/mL
2 | O=C1CSCC(=O)N1c1ncc(C(F)(F)F)cc1Cl | 42 µg/mL (≈ 135 µM)
3 | CSc1nccc(NC(=O)c2cccc(Br)c2)n1 | 2.5 µg/mL (≈ 7.71 µM)
4 | O=C(Oc1c(-c2ccccc2)c(=O)n2c3c(cccc13)CC2)c1ccc(F)cc1 | < 0.8 µg/mL
5 | Cn1ccsc1=NC(=O)c1cccc(OC(F)F)c1 | > 42.6 µg/mL
6 | CC1(C)OC(=O)C(=CNC(CO)C(=O)O)C(=O)O1 (stereo unspecified) | > 38.9 µg/mL
7 | O=C1CCC(C(=O)OCc2nnc(-c3ccccc3)o2)=NN1 | > 45 µg/mL
8 | CC(C(O)c1cc(=O)c(OCc2ccccc2)co1)[N+](=O)[O-] (stereo unspecified) | 33.1 µg/mL (≈ 108 µM)
9 | COc1cccc(-n2c(SCc3ccccn3)nc3c(c2=O)SCC3)c1 | 54.1 µg/mL (≈ 141 µM)
10 | Nc1ccc(Sc2ccccc2Cl)nc1 | > 35.5 µg/mL
11 | N#CCc1ccc(Oc2ccc([N+](=O)[O-])cn2)cc1 | 35.6 µg/mL (≈ 139 µM)
12 | COc1ccc(CCNC(=O)c2ccccc2C(=O)NCCc2ccc(OC)cc2)cc1 | 2.2 µg/mL (≈ 5.09 µM)
13 | Cc1cc(NC(=O)Cn2c(=O)oc3ccc(Cl)cc32)no1 | 1.5 µg/mL (≈ 4.87 µM)
14 | O=C1C(Cc2cnc[nH]2)NC(=S)N1c1ccccc1 (stereo unspecified) | 37.4 µg/mL (≈ 137 µM)
15 | CCCCN(CC)C(=O)c1cc2cc3ccc(Cl)cc3nc2o1 | 3.3 µg/mL (≈ 9.98 µM)
16 | CN(C)CC/C=C1/c2ccccc2CS(=O)(=O)c2ccccc21 | 47.6 µg/mL (≈ 145 µM)
17 | Cc1cc(NC(=O)CSc2nc3ccccc3n2CC(C)C)no1 | 7.3 µg/mL (≈ 21.2 µM)
18 | CC1=C(C)CC(C(=O)NCc2ccccc2F)C(C(=O)O)C1 (stereo unspecified) | > 45.8 µg/mL
19 | O=Cc1c(NC2CCCCC2)c2ccccc2[nH]c1=O | 35.2 µg/mL (≈ 130 µM)
20 | CN(Cc1ccccc1)C(=O)c1cccnc1 | > 33.9 µg/mL
21 | COc1ccc(OC)c(C(=O)c2ccccn2)c1 | > 36.5 µg/mL

Row | Compound | solubility kinetic
22 | COC(=O)c1ccc(CNC(=O)COC(=O)/C=C/c2ccc(OC)c(OC)c2)cc1 | 6.6 µg/mL (≈ 16 µM)
23 | O=C(c1ccccn1)c1ccc2ccccc2n1 | 28.8 µg/mL (≈ 123 µM)
24 | CCOC(=O)c1c(C)[nH]c(C)c1C(=O)COC(=O)c1cccs1 | > 50.3 µg/mL
25 | Cc1ccnc(NC2(C(F)(F)F)N=C3SCCN3C2=O)c1 (stereo unspecified) | > 47.4 µg/mL
26 | CC(Cc1cccs1)NCc1ccccc1 (stereo unspecified) | 22.3 µg/mL (≈ 96.4 µM)
27 | Cc1cc(C)c(C#N)c(N)n1 | > 22.1 µg/mL
28 | O=C(O)/C=C\C(=O)Nc1ccc(F)c(F)c1F | 34.3 µg/mL (≈ 140 µM)
29 | CCc1cccc2c(C(=O)C(NC(C)CC)c3ccccc3)c[nH]c12 (stereo unspecified) | 42.8 µg/mL (≈ 128 µM)
30 | S=c1[nH]ccn1-c1cccc(Cl)c1Cl | > 36.8 µg/mL
31 | COc1ccccc1Nc1nc(-c2cccnc2)cs1 | 1 µg/mL (≈ 3.53 µM)
32 | O=C(NCc1ccco1)c1ccc(Cn2c(=S)[nH]c3ccccc3c2=O)cc1 | 0.4 µg/mL (≈ 1.02 µM)
33 | COc1ccc(CC(=O)Nc2ccc(N(C)C)c3ccccc23)cc1 | 7.6 µg/mL (≈ 22.7 µM)
34 | CCC(C(=O)OCC(=O)NC(=O)NC(C)(C)C)c1ccccc1 (stereo unspecified) | 2 µg/mL (≈ 6.24 µM)
35 | Cc1cc(C(=O)OCC(=O)c2ccccc2)c2ccccc2n1 | 3.6 µg/mL (≈ 11.8 µM)
36 | Fc1cnc(Cl)nc1N1CCN(c2ccccc2)CC1 | 17.4 µg/mL (≈ 59.4 µM)
37 | Cc1noc(C)c1COc1ncnc2ccccc12 | > 38.3 µg/mL
38 | CC1CC(O)(CC(O)(c2ccccc2)c2ccccc2)C(C)CN1C (stereo unspecified) | > 50.9 µg/mL
39 | Cc1csc(NC(=O)CSc2[nH]c(=O)ncc2C)n1 | > 44.5 µg/mL
40 | CN(C)c1ccc(/C=C/C(=O)c2cccnc2)cc1 | 9.5 µg/mL (≈ 37.7 µM)
41 | Cc1csc2nc(NC(=O)c3ccccc3)sc(=O)c12 | 0.9 µg/mL (≈ 2.98 µM)
42 | Cc1nc2c(C)cccc2c2c1COC2 | 18.4 µg/mL (≈ 92.3 µM)

Row | Compound | solubility kinetic
43 | CN(C)CCOC(=O)c1ccc2[nH]c3c(c2c1)CSCC3.Cl | 49.2 µg/mL
44 | O=C(O)c1ccc2c(c1)C(=O)N(c1ccccc1-c1ccccc1)C2=O | > 51.5 µg/mL
45 | COc1ccc2nc(C(F)(F)Cl)c(C#N)c(N)c2c1 | 3.8 µg/mL (≈ 13.4 µM)
46 | COc1ccc(C2c3sc(=O)[nH]c3SCC2C(N)=O)cc1 (stereo unspecified) | 40 µg/mL (≈ 124 µM)
47 | CCOC(=O)C1=C(COC(=O)/C=C/c2cccc(F)c2)NC(=O)NC1C (stereo unspecified) | 4.6 µg/mL (≈ 12.7 µM)
48 | CC1CCc2cc(F)ccc2N1C(=O)c1cccs1 (stereo unspecified) | 30.8 µg/mL (≈ 112 µM)
49 | Cc1cc(C)nc(Nc2ccc(Cl)cc2C)n1.Cl | 21.2 µg/mL
50 | CC1CCCCC12NC(=O)N(CC(=O)OCc1c(F)cccc1Cl)C2=O (stereo unspecified) | 53.3 µg/mL (≈ 139 µM)
51 | N#CC(=NCc1cccnc1)C1=C(O)c2ccccc2C1=O | 6.4 µg/mL (≈ 22.1 µM)
52 | O/N=C/c1ccnc(SCc2ccccc2)n1 | 31.4 µg/mL (≈ 128 µM)
53 | Cc1nnc(NC(=O)c2ccc(Br)o2)s1 | > 43.2 µg/mL
54 | O=c1[nH]cnc2sc3c(c12)CCC3 | > 28.8 µg/mL
55 | Cc1ccc(-n2c(C)c(C)c3c(N)ncnc32)cc1 | 16.1 µg/mL (≈ 63.8 µM)
56 | COc1cc(C)c(CN2CC=C(c3ccc(F)cc3)CC2)cc1C | 8.5 µg/mL (≈ 26.1 µM)
57 | Cc1nnc(NC(=O)CN2C(=O)NC3(CCCC3)C2=O)s1 | > 46.4 µg/mL
58 | Cc1ccc(CNC(=O)C(Cc2ccccc2)n2cccc2)cc1 (stereo unspecified) | 5.3 µg/mL (≈ 16.6 µM)
59 | O=C(NC(=S)NC1CCCCC1)c1ccccc1 | 8.5 µg/mL (≈ 32.4 µM)
60 | N#C/C(=C\Nc1ccc(F)c(Cl)c1)C(=O)C1CC1 | 1.7 µg/mL (≈ 6.42 µM)
61 | Cc1nn(C)cc1S(=O)(=O)N1CCCCC1C (stereo unspecified) | > 38.6 µg/mL

Next, values leading:

Row | solubility kinetic | Compound
62 | 25 µg/mL (≈ 125 µM) | CCC(=O)Nc1cccc2cccnc12
63 | > 38.4 µg/mL | O=C(c1ccccc1)c1nc2c(n1O)CCCCC2
64 | 46.3 µg/mL (≈ 136 µM) | CC(=O)Nc1ccc(S(=O)(=O)NCCCN2CCOCC2)cc1
65 | > 44.6 µg/mL | CN1C(=O)C(O)(CC(=O)/C=C/c2ccco2)c2ccccc21 (stereo unspecified)
66 | > 38.3 µg/mL | COCCNC(=S)Nc1ccccc1[N+](=O)[O-]
67 | < 0.3 µg/mL | CCCCC(=O)NC(=O)NC(c1ccccc1)c1ccccc1
68 | > 34.8 µg/mL | O=C(N/N=C/c1ccoc1)c1ccccc1F
69 | > 49.9 µg/mL | CN1CCN(c2nc(-c3ccccc3)ncc2S(C)(=O)=O)CC1
70 | > 44.4 µg/mL | Cn1nc(C(C)(C)C)c([N+](=O)[O-])c1C(=O)N1CCOCC1
71 | > 63 µg/mL | COc1ccc(CNC(=O)CN(C)CC(=O)Nc2ccccc2Br)cc1
72 | > 50.8 µg/mL | O=C(NCCCN1CCOCC1)C(c1ccccc1)c1ccccc1
73 | 0.9 µg/mL (≈ 3.11 µM) | CCc1cccc(OCC(=O)Nc2c[nH]c(=O)[nH]c2=O)c1
74 | > 49.9 µg/mL | CCOC(=O)C1CCN(CCC(=O)Nc2ccc(C)c(C)c2)CC1
75 | 38.7 µg/mL (≈ 121 µM) | CN(CC(=O)NCc1ccc(F)cc1)Cc1cccc(Cl)c1
76 | 41.2 µg/mL (≈ 137 µM) | NC(=O)c1ccc(NC(=O)CCNC(=O)c2ccco2)cc1
77 | 44.9 µg/mL | Cc1cccc(Nc2c3c(nc4ccccc24)CCC3)c1.Cl
78 | 15.3 µg/mL (≈ 33.4 µM) | CC1CN(C(=O)COC(=O)c2cccc(S(=O)(=O)N3CCc4ccccc43)c2)CC(C)O1 (stereo unspecified)
79 | > 50.2 µg/mL | COc1ccc(N2CC(C(=O)NC3CCSC3=O)CC2=O)cc1 (stereo unspecified)
80 | > 64.6 µg/mL | O=C(CN1C(=O)NC(Cc2c[nH]c3ccccc23)C1=O)Nc1ccccc1C(F)(F)F (stereo unspecified)
81 | 42.2 µg/mL (≈ 123 µM) | CC(OCC(O)CN1CCCCC1CCO)c1ccc(Cl)cc1 (stereo unspecified)

Row | solubility kinetic | Compound
82 | > 46.4 µg/mL | Cc1ccc(S(=O)(=O)CCC(=O)NC2CCCCC2)cc1
83 | > 52.1 µg/mL | O=C(O)c1cccc(S(=O)(=O)N2CCN(c3ccccn3)CC2)c1
84 | > 32.9 µg/mL | Cc1ccc2c(c1)C1(OCCCO1)C(=O)N2
85 | 31.1 µg/mL (≈ 99.9 µM) | O=C(COc1ccc(-n2ccnc2)cc1)Nc1cccc(F)c1
86 | 1.5 µg/mL (≈ 4.64 µM) | CCOC(=O)C1CCCCN1Cc1ccc(-c2ccccc2)cc1 (stereo unspecified)
87 | 1.2 µg/mL | CCc1nc(Nc2ccc(O)cc2)c2oc3ccccc3c2n1.Cl
88 | > 38.3 µg/mL | O=C(NCc1ccccn1)C(=O)Nc1ccccc1
89 | 53.1 µg/mL (≈ 148 µM) | Cc1ccccc1S(=O)(=O)NCc1ccc(N2CCN(C)CC2)cc1
90 | 33.1 µg/mL (≈ 137 µM) | O=C(/C=C/c1ccco1)NCCc1ccccc1
91 | 2.5 µg/mL (≈ 9.42 µM) | Cc1coc(C)c1C(=O)Nc1ccc2ccccc2c1
92 | > 45 µg/mL | Cc1ccc(NC(=O)CSc2nncs2)cc1Cl
93 | 1.9 µg/mL (≈ 6.8 µM) | Cc1cccc(NC(=O)c2cc(=O)c3ccccc3o2)c1
94 | 52.4 µg/mL (≈ 147 µM) | CCOC(=O)C1CCCN(C(=O)Nc2c(-c3ccccc3)noc2C)C1 (stereo unspecified)
95 | > 46.7 µg/mL | CC(=O)Nc1ccc(S(=O)(=O)N2CC(=O)NC(=O)C2)cc1
96 | 17.5 µg/mL (≈ 37.4 µM) | O=C(COC(=O)c1ccc(F)c(S(=O)(=O)N2CCOCC2)c1)NCCc1ccc(F)cc1
97 | 18 µg/mL (≈ 57.1 µM) | CCOc1ccccc1NC(=O)NC(=O)N(C)S(C)(=O)=O
98 | 6.7 µg/mL (≈ 24.7 µM) | C=CCC1(N(C(C)=O)c2ccccc2C)CCCCC1
99 | 2.4 µg/mL (≈ 6.24 µM) | Cc1ccc(NC(=S)NC(=O)c2cncc(Br)c2)cc1Cl
100 | 33.4 µg/mL (≈ 106 µM) | O=C(Nc1ccccc1Cl)C1CC(=O)N(c2ccccc2)C1 (stereo unspecified)
101 | 30.6 µg/mL (≈ 118 µM) | COC(=O)Cn1cc(/C=C/[N+](=O)[O-])c2ccccc21

Row | solubility kinetic | Compound
102 | > 44.4 µg/mL | Cc1c(C(=O)C(=O)NCc2ccco2)c2ccccc2n1C
103 | > 38.5 µg/mL | N#Cc1ccc(C(=O)NC2CCCCCCC2)cc1
104 | 40.4 µg/mL (≈ 139 µM) | Cc1ccc([N+](=O)[O-])cc1NC(=O)C(C)N1CCCCC1 (stereo unspecified)
105 | > 47.8 µg/mL | OC(CN1CCN(c2ccccc2F)CC1)c1ccc(F)cc1 (stereo unspecified)
106 | > 55.4 µg/mL | O=C(Cc1ccccc1[N+](=O)[O-])Nc1ccccc1C(=O)N1CCOCC1
107 | 3.8 µg/mL (≈ 10.3 µM) | COc1cc(Nc2ccc(S(N)(=O)=O)cc2)c([N+](=O)[O-])nc1[N+](=O)[O-]
108 | > 38.8 µg/mL | O=C(NC1CCCCC1)N1CCc2ccccc2C1
109 | 17.3 µg/mL (≈ 53.7 µM) | Cc1cc(=O)[nH]c2c(C)cc(S(=O)(=O)N3CCOCC3)cc12
110 | 2.6 µg/mL (≈ 7.85 µM) | O=C(COC(=O)c1ccc2c(c1)OCCO2)Nc1ccc(F)cc1
111 | 5.2 µg/mL (≈ 16.5 µM) | CCOC(=O)c1cc(S(=O)(=O)N2CCC(C)CC2)cn1C
112 | 1.8 µg/mL (≈ 5.73 µM) | CCOc1ccc(NC(=S)NC(=O)Cc2ccccc2)cc1
113 | 1.4 µg/mL (≈ 4.54 µM) | O=S(=O)(c1cccs1)N1CCN(c2ccccc2)CC1
114 | 25.2 µg/mL (≈ 122 µM) | CCNCC(=O)Nc1c(C)cccc1C
115 | 2.2 µg/mL (≈ 6.78 µM) | Cc1ccc(NC(=O)C2CCCN(c3nccc(C)n3)C2)c(C)c1 (stereo unspecified)
116 | > 49.4 µg/mL | Cc1nc2ccccc2n1CC(=O)OCC(=O)N1CCC(C)CC1
117 | > 47.7 µg/mL | CCn1c(=O)cc(N2CCN(C(=O)c3ccco3)CC2)[nH]c1=O
118 | 2.6 µg/mL (≈ 8.3 µM) | O=C(NC(=S)Nc1ccc(Br)cc1)C1CCC1
119 | < 0.2 µg/mL | COc1ccc(NC(=O)Nc2cccc(Cl)c2Cl)c(OC)n1
120 | 5.1 µg/mL (≈ 16.1 µM) | Cc1c(Cl)ccc(S(=O)(=O)Nc2cccnc2)c1Cl
121 | 3.4 µg/mL (≈ 10.4 µM) | O=C(COC(=O)CCC1CCCC1)Nc1ccc(F)cc1Cl
